The nature of one data set: Solubility test. Format: physicochemical. On the procedure: Solubility test: The dissolving solvent was added drop by drop to 1 mmol of testing powder with intermittent agitation with VWR Vertex mixer, until all powder was dissolved. The total mass of the solution was recorded. A glass micro syringe was used to transfer 100 μL of the solution directly to a tared weight glass vial for mass measurement. Specific gravity of the as-obtained solution was calculated, then the total volume of the as-obtained solution was calculated using calculated density and recorded total solution mass. Last, molarity was calculated based on calculated total solution volume (Duan et al., ACS Energy Letters 2017, 2:1156-1161).
The solubilities of as-synthesized FLs in basic solution, 2 M NaOH/KOH, was investigated. […] The energy density is almost double that of a conventional vanadium electrolyte.

The conditions of data set [1]: 2M KOH column; literature data provided as a comparison (tested in KOH); cited from earlier work.
Data set [2] in a line: Post-cycling analysis of anolyte (NMR, mass spectroscopy). Format: physicochemical. Particulars: after 6-month operation, 1.36 M anolyte. The method, then:
An additional test was conducted for six months (FIG. 18). […] At about cycle 650, catholyte precipitation was noticed, and replaced with fresh catholyte. No material degradation was detected by NMR or mass-spectroscopy (FIGS. 21 and 22).
For the reason that charged anolyte is usually sensitive to 02, flow battery tests of organic based electrolyte reported so far are conducted in inert atmosphere, which is a significant hurdle to their practical applications. We submit another battery test without significant deaerating treatment at reasonable CE and EE (FIGS. 34 and 35). The 1 M battery was assembled without N2 atmosphere, sealed with a stopper and parafilm, and no further deoxygenation was conducted before charging. The battery operated stably at 20 mA/cm^2 for 2 weeks. The observed capacity fluctuation was attributed to temperature changes on a daily basis. […] The first cycle low CE was attributed to charged material consuming existing 02 in the cell system. As expected, the first cycle charging capacity was a little higher than same amount of substance in a battery inside the purge box (without 02 induced discharge influence). However, no irreversible side reactions occurred and long-term cycling occurred analogous to tests conducted in an inert atmosphere purge box. […]

The nature of data set [3]: Cyclic voltammetry in aqueous 1 M NaOH. The data set is classed as physicochemical. Particulars: 1 M NaOH solution. On the procedure:
Electrochemical tests: CV measurements in aqueous phase were performed using a three-electrode configuration consisting of a glassy carbon working electrode (3 mm diameter), a glassy carbon counter electrode and an Ag/AgCl reference electrode. The electrolytes of 10 mM redox-active materials in 1.0 M NaOH were used. CV data were collected using a CHI760D potentiostat (CH Instruments) at a scan rate of 100 mV s^−1 (Hollas et al., Nature Energy 2018, 3:508-514). CV measurements in nonaqueous phase were performed using a three-electrode configuration consisting of a glassy carbon working electrode (3 mm diameter), a glassy carbon counter electrode and an Ag/AgNO3 (10 mM in Acetonitrile) as reference electrode or Ag wire as pseudo reference electrode (Inzelt et al., Handbook of Reference Electrodes, 2013, Springer). Tests were carried out in an argon-filled Mbraun glove box (Stratham, N.H., USA).
In view of the DFT calculation, it was theorized that functionalization of the FL ring structures with electron withdrawing groups such as —F, -sulfonamide, and —SO3−, among others, would shift the equilibrium constant to increase the concentration of deprotonated FL-OH anion/dianion relative to FL-OH, thereby improving the two-electron redox-reversibility of FLs. […] As expected, the CV curves with two pairs of peaks become clear and sharp with adding stronger electron withdrawing groups. […]

Where [4] appears, read: 2 M KOH solution, aqueous buffer, thermodynamic from solid, 2M KOH, read-out: Solubility.
Setting [5] is: 2 M NaOH solution, aqueous buffer, thermodynamic from solid, 2M NaOH, read-out: Solubility.

Values after ≈ are worked out from the molar mass of the structure shown. Where two headings read alike, the source gives them in different places. Where only a bound is given, the exact number is not on record here.

Consider `O=C1c2cc(OCCOCCOCCO)ccc2-c2ccc(OCCOCCOCCO)cc21` [PEG-FL], for which the solubility entry in the data set “Solubility test” (2M KOH) and in the data set “Solubility test” (2M NaOH) was “trace” each time. For the molecule `O=C1c2cc(Br)cc(S(=O)(=O)[O-])c2-c2c1cc(Br)cc2S(=O)(=O)[O-].[K+].[K+]` [Compound 27Br4SFL], the solubility result in the data set “Solubility test” (2M KOH) and in “Solubility test” (2M NaOH) was “trace” each time. On to `O=C(O)c1cc(F)cc2c1-c1ccc(F)cc1C2=O` [Compound 27F4CFL], for which, in “Solubility test” (thermodynamic from solid, with agitation, copious precipitate after sitting overnight, read-out: Solubility (transparent homogeneous solution)), the solubility was ≤ 1400 mM.

Consider `O=C1c2cccnc2-c2ncccc21` [Compound 45NFL, 4,5-diazafluoren-9-one], for which the “solubility (in words)” value in the data set “Solubility test” is reported as “limited solubility”. As to `O=C(O)c1cccc2c1-c1ccccc1C2=O` [Compound 4CFL], in data set [1], the solubility is 650 mM (≈ 146 mg/mL). In turn, `O=C(O)c1cc(F)cc2c1-c1c(cc(F)cc1S(=O)(=O)[O-])C2=O.[K+]` [Compound 27F4C5SFL] had a solubility in “Solubility test” (2M NaOH) of 150 mM. Regarding `O=C(O)c1ccc2c(c1)C(=O)c1cc(S(=O)(=O)[O-])ccc1-2.[K+]` [Compound 2C7SFL], the solubility was 700 mM in “Solubility test” (setting [4]) and 1100 mM in the data set “Solubility test” (setting [5]). `O=C1c2cc(S(=O)(=O)[O-])ccc2-c2ccc(S(=O)(=O)[O-])cc21.[K+].[K+]` [DSFL, Potassium 9-oxo-9H-fluorene-2,7-disulfonate]: the solubility in the data set “Solubility test” (2 M KOH solution, aqueous buffer, thermodynamic from solid, read-out: Solubility) was < 50 mM; in “Solubility test” (2 M NaOH solution, aqueous buffer, thermodynamic from solid, read-out: Solubility), < 50 mM; in “Solubility test” (thermodynamic from solid, disodium salt in pure water, read-out: Solubility), ≤ 240 mM.

As to `O=C(O)c1cc(S(=O)(=O)O)cc2c1-c1ccc(S(=O)(=O)O)cc1C2=O` [Compound 27S4CFL, 9-oxo-2,7-sulfo-9H-fluorene-4-carboxylic acid], in the data set “Solubility test” (2M NaOH), the solubility was 800 mM (≈ 307 mg/mL). Consider `O=C(O)c1cccc2c1-c1ccc(S(=O)(=O)O)cc1C2=O` [Compound 4C7SFL, 9-Oxo-7-sulfo-9H-fluorene-4-carboxylic acid], for which, in data set [2], the “post-cycling analysis (in words)” value is listed as “small, yet observable new aromatic peaks attributed to de-sulfonation on the fluorenone core structure”. In addition, the solubility in “Solubility test” (setting [4]) came out at 1300 mM (≈ 396 mg/mL); in the data set “Solubility test” (setting [5]) it was 1500 mM (≈ 456 mg/mL). The available electron concentration in the data set “Solubility test” (two-electron redox reaction, from solubility) is ~3 M. `O=C(O)c1ccc2c(c1)C(=O)c1cc(C(=O)O)ccc1-2` [DCFL]: the figures for the solubility in “Solubility test” (2M KOH) and in the data set “Solubility test” (2M NaOH) were 900 mM (≈ 241 mg/mL) and 40 mM (≈ 10.7 mg/mL), respectively. Turning to `N#Cc1nc2c(nc1O)-c1ccccc1C2=O` [Compound 14N2CN3OHFL, 3-hydroxy-9-oxo-9H-indeno[1,2-b]pyrazine-2-carbonitrile], in data set [3], the reversible peak potential is recorded as ~−0.85 V vs Ag/AgCl. In “Solubility test” (setting [5]), the solubility was 1000 mM (≈ 223 mg/mL). As for `O=C1c2cc(O)ccc2-c2ccc(O)cc21` [DHFL, 9-oxo-2,7-dihydroxy-9H-fluorene], the solubility in the data set “Solubility test” (pure water with 2 eq. NaOH, aqueous buffer, thermodynamic from solid, with 2 eq. NaOH in pure water, read-out: Solubility) was found to be 600 mM (≈ 127 mg/mL). As to `O=C(O)c1ccc2c(c1)C(=O)c1ccccc1-2` [Compound 2CFL], the solubility in data set [1] was 800 mM (≈ 179 mg/mL).

The solubility is the dissolved amount per volume that the medium holds.
